Molecular target: BTK (Homo sapiens (Human), UniProt Q06187)
Assay: Z'-LYTE kinase inhibition assay against BTK
Type: biochemical
Settings: for inhibition at 0.1 µM: compound at 100 nM, ATP concentration at Km; for IC50: series of concentrations, GraphPad Prism 5
Method in brief: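 Z′-LYTE FRET readout: 1.04-10.4 ng BTK with 2 μM Tyr 01 peptide, ATP at Km, in 50 mM HEPES pH 7.5, 10 mM MgCl2, 1 mM EGTA, 0.01% BRIJ-35, 1% DMSO. 60 min kinase reaction at room temperature, then 60 min development; IC50 from 10-point, 3-fold titrations.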

BTK, sequence (Q06187 whole entry): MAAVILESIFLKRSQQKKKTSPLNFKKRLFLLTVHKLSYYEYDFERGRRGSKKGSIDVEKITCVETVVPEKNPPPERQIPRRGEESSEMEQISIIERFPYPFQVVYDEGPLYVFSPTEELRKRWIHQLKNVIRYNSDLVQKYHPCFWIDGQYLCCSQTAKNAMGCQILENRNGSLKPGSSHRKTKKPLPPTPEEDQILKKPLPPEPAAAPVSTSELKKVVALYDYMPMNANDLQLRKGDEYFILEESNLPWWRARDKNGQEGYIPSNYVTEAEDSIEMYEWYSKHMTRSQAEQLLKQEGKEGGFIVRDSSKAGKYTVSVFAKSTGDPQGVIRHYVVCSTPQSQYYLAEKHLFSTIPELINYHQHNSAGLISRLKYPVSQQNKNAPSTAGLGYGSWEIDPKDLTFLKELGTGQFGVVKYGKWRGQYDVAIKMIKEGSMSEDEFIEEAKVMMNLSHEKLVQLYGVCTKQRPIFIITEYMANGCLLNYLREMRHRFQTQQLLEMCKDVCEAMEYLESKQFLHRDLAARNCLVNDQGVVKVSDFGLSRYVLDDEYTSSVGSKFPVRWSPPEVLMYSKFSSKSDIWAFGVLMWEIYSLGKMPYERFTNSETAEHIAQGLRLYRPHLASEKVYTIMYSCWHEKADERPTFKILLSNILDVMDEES

inhibition at 0.1 µM	IC50	SMILES
< 50%	–	C=CC(=O)N1CCC(c2cc(-c3ccc(C(=O)Nc4cccnc4)cc3)cc3cncnc23)C1 (centres unmarked) [C115, 4-(8-(1-acryloylpyrrolidin-3-yl)quinazolin-6-yl)-N-(pyridin-3-yl)benzamide]
> 50%	< 100 nM	C=CC(=O)Nc1cccc(-c2cc(-c3ccc(C(=O)Nc4cc(C(F)(F)F)ccn4)cc3Cl)cc3cncnc23)c1 [C116, 4-(8-(3-acrylamidophenyl)quinazolin-6-yl)-3-chloro-N-(4-(trifluoromethyl)pyridin-2-yl)benzamide]
> 50%	< 100 nM	C=CC(=O)Nc1cccc(-c2cc(-c3ccc(Oc4cccnc4)cc3)cc3cncnc23)c1 [C117, N-(3-(6-(4-(pyridin-3-yloxy)phenyl)quinazolin-8-yl)phenyl)acrylamide]
> 50%	–	C=CC(=O)Nc1cccc(-c2cc(-c3ccccn3)cc3cncnc23)c1 [C118, N-(3-(6-(pyridin-2-yl)quinazolin-8-yl)phenyl)acrylamide]
> 50%	–	C=CC(=O)Nc1cccc(-c2cc(-c3ccc(Oc4ccccn4)c(OC)c3)cc3cncnc23)c1 [C119, N-(3-(6-(3-methoxy-4-(pyridin-2-yloxy)phenyl)quinazolin-8-yl)phenyl)acrylamide]
> 50%	< 100 nM	C=CC(=O)Nc1cccc(-c2cc(-c3ccc(C(=O)Nc4cc(C#N)ccn4)cc3Cl)cc3cncnc23)c1 [C122, 4-(8-(3-acrylamidophenyl)quinazolin-6-yl)-3-chloro-N-(4-cyanopyridin-2-yl)benzamide]
> 50%	–	C=CC(=O)N1CCC(c2cc(-c3ccc(C(=O)Nc4cc(C5CC5)ccn4)cc3)cc3cncnc23)C1 (centres unmarked) [C123, 4-(8-(1-acryloylpyrrolidin-3-yl)quinazolin-6-yl)-N-(4-cyclopropylpyridin-2-yl)benzamide]
< 50%	–	C=CC(=O)N1CCC(c2cc(-c3ccc(C(=O)Nc4cc(C#N)ccn4)cc3)cc3cncnc23)C1 (centres unmarked) [C124, 4-(8-(1-acryloylpyrrolidin-3-yl)quinazolin-6-yl)-N-(4-cyanopyridin-2-yl)benzamide]
> 50%	–	C=CC(=O)N1CCC(c2cc(-c3ccc(C(=O)Nc4cc(C(F)(F)F)ccn4)cc3)cc3cncnc23)C1 (centres unmarked) [C125, 4-(8-(1-acryloylpyrrolidin-3-yl)quinazolin-6-yl)-N-(4-(trifluoromethyl)pyridin-2-yl)benzamide]
< 50%	–	C=CC(=O)N1CCC(c2cc(-c3ccc(C(=O)Nc4ccccn4)cc3F)n3cnccc23)C1 (centres unmarked) [C126, 4-(5-(1-acryloylpyrrolidin-3-yl)pyrrolo[1,2-c]pyrimidin-7-yl)-3-fluoro-N-(pyridin-2-yl)benzamide]
< 50%	–	C=CC(=O)Nc1cccc(-c2cc(-c3ccc(C(=O)Nc4cc(C(F)(F)F)ccn4)c(F)c3)cc3cncnc23)c1 [C127, 4-(8-(3-acrylamidophenyl)quinazolin-6-yl)-2-fluoro-N-(4-(trifluoromethyl)pyridin-2-yl)benzamide]
< 50%	–	C=CC(=O)N1CCC(c2cc(-c3ccc(C(=O)Nc4cc(C(N)=O)ccn4)cc3)cc3cncnc23)C1 (centres unmarked) [C128, 2-(4-(8-(1-acryloylpyrrolidin-3-yl)quinazolin-6-yl)benzamido)isonicotinamide]
> 50%	< 100 nM	C=CC(=O)Nc1cccc(-c2cc(-c3ccc(C(=O)Nc4cc(C(F)(F)F)ccn4)cc3F)cc3cncnc23)c1 [C129, 4-(8-(3-acrylamidophenyl)quinazolin-6-yl)-3-fluoro-N-(4-(trifluoromethyl)pyridin-2-yl)benzamide]
< 50%	–	C=CC(=O)N1CCC(c2cc(-c3ccc(C(=O)Nc4cc(C(F)(F)F)ccn4)cc3F)n3cnccc23)C1 (centres unmarked) [C130, 4-(5-(1-acryloylpyrrolidin-3-yl)pyrrolo[1,2-c]pyrimidin-7-yl)-3-fluoro-N-(4-(trifluoromethyl)pyridin-2-yl)benzamide]
> 50%	< 100 nM	C=CC(=O)Nc1cccc(-c2cc(-c3ccc(C(=O)Nc4ccccn4)c(F)c3)cc3cncnc23)c1 [C132, 4-(8-(3-acrylamidophenyl)quinazolin-6-yl)-2-fluoro-N-(pyridin-2-yl)benzamide]
< 50%	–	C=CC(=O)N1CCC(c2cc(-c3ccc(Oc4ccccn4)cc3OC)cc3cncnc23)C1 (centres unmarked) [C133, 1-(3-(6-(2-methoxy-4-(pyridin-2-yloxy)phenyl)quinazolin-8-yl)pyrrolidin-1-yl)prop-2-en-1-one]
> 50%	–	C=CC(=O)Nc1cccc(-c2cc(-c3ccc(C(=O)Nc4cc(C(N)=O)ccn4)cc3Cl)cc3cncnc23)c1 [C134, 2-(4-(8-(3-acrylamidophenyl)quinazolin-6-yl)-3-chlorobenzamido)isonicotinamide]
> 50%	–	C=CC(=O)N1CCC(c2cc(-c3ccc(C(=O)Nc4cc(C(F)(F)F)ccn4)cc3)n3cnccc23)C1 (centres unmarked) [C136, 4-(5-(1-acryloylpyrrolidin-3-yl)pyrrolo[1,2-c]pyrimidin-7-yl)-N-(4-(trifluoromethyl)pyridin-2-yl)benzamide]
> 50%	< 100 nM	C=CC(=O)Nc1cccc(-c2cc(-c3ccc(C(=O)Nc4cc(C(F)(F)F)ccn4)cc3)cc3cncnc23)c1 [C137, 4-(8-(3-acrylamidophenyl)quinazolin-6-yl)-N-(4-(trifluoromethyl)pyridin-2-yl)benzamide]
< 50%	–	C=CC(=O)Nc1cccc(-c2cc(-c3ccc(C(=O)Nc4cc(C(N)=O)ccn4)cc3)cc3cncnc23)c1 [C138, 2-(4-(8-(3-acrylamidophenyl)quinazolin-6-yl)benzamido)isonicotinamide]
< 50%	–	C=CC(=O)Nc1cccc(-c2cc(-c3ccc(C(=O)Nc4cc(C5CC5)ccn4)c(OC)c3)cc3cncnc23)c1 [C140, 4-(8-(3-acrylamidophenyl)quinazolin-6-yl)-N-(4-cyclopropylpyridin-2-yl)-2-methoxybenzamide]
< 50%	–	C=CC(=O)Nc1cccc(-c2cc(-c3ccc(C(=O)Nc4ccccn4)c(OC)c3)cc3cncnc23)c1 [C141, 4-(8-(3-acrylamidophenyl)quinazolin-6-yl)-2-methoxy-N-(pyridin-2-yl)benzamide]
< 50%	–	C=CC(=O)N1CCC(c2cc(-c3ccc(C(=O)Nc4ccc(C(F)(F)F)cn4)cc3)cc3cncnc23)C1 (centres unmarked) [C142, 4-(8-(1-acryloylpyrrolidin-3-yl)quinazolin-6-yl)-N-(5-(trifluoromethyl)pyridin-2-yl)benzamide]
< 50%	–	C=CC(=O)N1CCC(c2cc(-c3ccc(Oc4cc(C(F)(F)F)ccn4)cc3)n3cnccc23)C1 (centres unmarked) [C143, 1-(3-(7-(4-((4-(trifluoromethyl)pyridin-2-yl)oxy)phenyl)pyrrolo[1,2-c]pyrimidin-5-yl)pyrrolidin-1-yl)prop-2-en-1-one]
< 50%	–	C=CC(=O)N1CCC(c2cc(-c3ccc(Oc4ccccn4)cc3F)cc3cnc(N)nc23)C1 (centres unmarked) [C144, 1-(3-(2-amino-6-(2-fluoro-4-(pyridin-2-yloxy)phenyl)quinazolin-8-yl)pyrrolidin-1-yl)prop-2-en-1-one]
< 50%	–	C=CC(=O)Nc1cccc(-c2cc(-c3ccc(C(=O)Nc4cc(C(F)(F)F)ccn4)c(OC)c3)cc3cncnc23)c1 [C145, 4-(8-(3-acrylamidophenyl)quinazolin-6-yl)-2-methoxy-N-(4-(trifluoromethyl)pyridin-2-yl)benzamide]

Source: patent US10544106B2, “Certain chemical entities, compositions, and methods” (NeuPharma, Inc., priority 2016, dated 2020)
